Experimental data from patent US7453555B2, “Aggregometer with near ultraviolet light source” (Bio/Data Corporation, priority 2005, dated 2008).
Values joined by “and” are separate entries in the source; they are usually repeats but may differ in a detail not shown here. Identical values can stand only once.

How the values were obtained:
Assay type in all cases: cell-based
[1] = system: platelets (platelet rich plasma); experiment: PAP-8E normal aggregation test, channel to channel data; design: Average % Agg.: dose or concentration left out as unconfirmed; settings: for Average Slope: PAP-8E 340 nM LED; for Average % Agg.: PAP-8E 340 nm LED
Method: This test method preferably uses a normal platelet rich plasma (PRP) that has 200,000 platelets per cubic mm, with 1 μL volume. At about 6 μm long (oval), the platelets are quite small.
The normal test volume for the PAP-8E using the UV LED's is 500 μL. Using this volume, and the 200,000 platelets per cubic mm, we can assume there are (500×200,000=) 100,000,000 platelets.
During testing the beam of radiation passes through about 25% of the PRP. The task then, is to measure how many and how fast this smaller percentage of the PRP reacts and aggregates. This is done by the measurement of the change in transmission between a platelet poor (PPP) blank and the platelet rich sample.
The channel to channel variation in the PAP-8 E is now less than 11% CV for slope reproducibility and less than 8% CV for % aggregation reproducibility.

platelets [2] = experiment: Ristocetin dilution test (factor assay), PAP-4 aggregometer with 626 nm LED; settings: PAP-4 626 nm LED; for 100% Avg. / 100% Slope: 100% level
Description: (§1) Factor assay test methods benefit from the higher sensitivity of aggregometers utilizing short-wavelength LEDs. In these methods, reference curves are developed with a standard plasma (90-120% activity of the factor) that is serially diluted (down) to an activity of 1.56% (1:64 dilution). Tests are based on the rate of change in optical density.
Table 1 below and FIGS. 4a and 4b provide test results of a factor assay test: a ristocetin dilution test using an aggregometer with a 626 nm (long-wavelength) LED.
(§2) This is a quality control test in which ristocetin/plasma are tested to select the best dilution for a lot of ristocetin reagent. The attenuation of samples was measured at 8.5 mg/ml to 11.0 mg/ml concentrations to determine a slope of each sample (see Table 1, 100% slope, 100% Avg.). The slope is known by those skilled in the art as an indicator of the rate of reaction of the ristocetin reagent. Each of the 8.5 mg/ml to 11.0 mg/ml concentration ristocetin/plasma concentrations were also respectively tested diluted to 50% (see Table 1, 50% slope, 50% Avg.). The results of Table 1 are plotted in FIGS. 4a and 4b. FIG. 4a plots the slopes for each concentration at both 100% and 50% levels. FIG. 4b plots the difference in slopes between the 100% and 50% dilution levels for each concentration. […] Such irregularity makes reliable testing and analysis decision making difficult. […]

platelets [3] = experiment: Ristocetin dilution test (factor assay), PAP-8E aggregometer with short-wavelength LED; settings: for 100% Avg. / 100% Slope: 100% level
Method: as §1, §2
The most common use of aggregation in the United States is a test method called the Ristocetin Cofactor Assay. This assay uses standard lyophilized platelets and a plasma that contains a factor. This method uses a standard curve where the standard plasma is diluted to concentrations of 100% to 25%.

[4] = Ristocetin 8.5 mg/ml diluted to 50%
[5] = Ristocetin 9.0 mg/ml diluted to 50%
[6] = Ristocetin 9.5 mg/ml diluted to 50%
[7] = Ristocetin 10.0 mg/ml diluted to 50%
[8] = Ristocetin 10.5 mg/ml diluted to 50%
[9] = Ristocetin 11.0 mg/ml diluted to 50%

Nc1ncnc2c1ncn2[C@@H]1O[C@H](COP(=O)(O)OP(=O)(O)O)[C@@H](O)[C@H]1O [ADP]
Average Slope [1]: 41.3
Average % Agg. [1]: 72.6%

CCCCC/C=C\C/C=C\C/C=C\C/C=C\CCCC(=O)O [Arachidonic Acid]
Average Slope [1]: 38.9
Average % Agg. [1]: 73.5%

CNC[C@H](O)c1ccc(O)c(O)c1 [Epinephrine]
Average Slope [1]: 30.5
Average % Agg. [1]: 73.1%

Collagen
Average Slope [1]: 44.0
Average % Agg. [1]: 74.9%

ristocetin
50% Avg. (platelets [2]; [4]): 29.5
50% Slope (platelets [2]; [4]): 29.0 and 30.0
100% Avg. (platelets [2]; Ristocetin 8.5 mg/ml): 42.0
100% Slope (platelets [2]; Ristocetin 8.5 mg/ml): 42.0
Difference 100 − 50 (platelets [2]; Ristocetin 8.5 mg/ml): 12.5
50% Avg. (platelets [2]; [5]): 33.5
50% Slope (platelets [2]; [5]): 32.0 and 35.0
100% Avg. (platelets [2]; Ristocetin 9.0 mg/ml): 46.5
100% Slope (platelets [2]; Ristocetin 9.0 mg/ml): 47.0 and 46.0
Difference 100 − 50 (platelets [2]; Ristocetin 9.0 mg/ml): 13.0
50% Avg. (platelets [2]; [6]): 32.0
50% Slope (platelets [2]; [6]): 33.0 and 31.0
100% Avg. (platelets [2]; Ristocetin 9.5 mg/ml): 40.5
100% Slope (platelets [2]; Ristocetin 9.5 mg/ml): 41.0 and 40.0
Difference 100 − 50 (platelets [2]; Ristocetin 9.5 mg/ml): 8.5
50% Avg. (platelets [2]; [7]): 33.5
50% Slope (platelets [2]; [7]): 33.0 and 34.0
100% Avg. (platelets [2]; Ristocetin 10.0 mg/ml): 43.5
100% Slope (platelets [2]; Ristocetin 10.0 mg/ml): 41.0 and 46.0
Difference 100 − 50 (platelets [2]; Ristocetin 10.0 mg/ml): 10.0
50% Avg. (platelets [2]; [8]): 33.0
50% Slope (platelets [2]; [8]): 31.0 and 35.0
100% Avg. (platelets [2]; Ristocetin 10.5 mg/ml): 39.5
100% Slope (platelets [2]; Ristocetin 10.5 mg/ml): 39.0 and 40.0
Difference 100 − 50 (platelets [2]; Ristocetin 10.5 mg/ml): 6.5
50% Avg. (platelets [2]; [9]): 28.5
50% Slope (platelets [2]; [9]): 28.0 and 29.0
100% Avg. (platelets [2]; Ristocetin 11.0 mg/ml): 36.5
100% Slope (platelets [2]; Ristocetin 11.0 mg/ml): 41.0 and 32.0
Difference 100 − 50 (platelets [2]; Ristocetin 11.0 mg/ml): 8.0
Difference 100 − 50 (platelets [3]; Ristocetin 8.5 mg/ml): 2.5
50% Avg. (platelets [3]; [4]): 23.0
50% Slope (platelets [3]; [4]): 22.0 and 24.0
100% Avg. (platelets [3]; Ristocetin 8.5 mg/ml): 25.5
100% Slope (platelets [3]; Ristocetin 8.5 mg/ml): 23.0 and 28.0
Difference 100 − 50 (platelets [3]; Ristocetin 9.0 mg/ml): 5.0
50% Avg. (platelets [3]; [5]): 26.5
50% Slope (platelets [3]; [5]): 28.0 and 25.0
100% Avg. (platelets [3]; Ristocetin 9.0 mg/ml): 31.5
100% Slope (platelets [3]; Ristocetin 9.0 mg/ml): 32.0 and 31.0
Difference 100 − 50 (platelets [3]; Ristocetin 9.5 mg/ml): 8.0
50% Avg. (platelets [3]; [6]): 23.5
50% Slope (platelets [3]; [6]): 24.0 and 23.0
100% Avg. (platelets [3]; Ristocetin 9.5 mg/ml): 31.5
100% Slope (platelets [3]; Ristocetin 9.5 mg/ml): 31.0 and 32.0
Difference 100 − 50 (platelets [3]; Ristocetin 10.0 mg/ml): 9.0
50% Avg. (platelets [3]; [7]): 21.5
50% Slope (platelets [3]; [7]): 22.0 and 21.0
100% Avg. (platelets [3]; Ristocetin 10.0 mg/ml): 30.5
100% Slope (platelets [3]; Ristocetin 10.0 mg/ml): 31.0 and 30.0
Difference 100 − 50 (platelets [3]; Ristocetin 10.5 mg/ml): 8.0
50% Avg. (platelets [3]; [8]): 23.5
50% Slope (platelets [3]; [8]): 21.0 and 26.0
100% Avg. (platelets [3]; Ristocetin 10.5 mg/ml): 31.5
100% Slope (platelets [3]; Ristocetin 10.5 mg/ml): 30.0 and 33.0
Difference 100 − 50 (platelets [3]; Ristocetin 11.0 mg/ml): 4.0
50% Avg. (platelets [3]; [9]): 27.5
50% Slope (platelets [3]; [9]): 29.0 and 26.0
100% Avg. (platelets [3]; Ristocetin 11.0 mg/ml): 31.5
100% Slope (platelets [3]; Ristocetin 11.0 mg/ml): 30.0 and 33.0
